Measured values: patent publication US20120288604A1, “Organic Compounds” (Givaudan S.A., priority 2009, published 2012)

Legend:
[1] = Tsuzuki et al, J. of chemical and engineering data (1971), 16(1), 108-11; cited from earlier work
[2] = tested on: panel of 15 subjects all of whom were sweet sensitive; test: Sensory ranking to find the sucrose concentration iso-intense to aqueous para-ethoxy benzonitrile (R-index analysis); assay type: in vivo
Procedure: The test samples contained para-ethoxy benzonitrile in water. The control samples were aqueous solutions of sucrose at 0.5%, 1.0%, 1.5% and 2.0%. The sensory evaluations were conducted as follows. All samples were presented at ambient temperature in 15 ml aliquots at random to a panel of 15 subjects all of whom were sweet sensitive of varying sensitivity. After tasting each sample, panelists rinsed their mouths thoroughly with water at ambient temperature prior to tasting subsequent samples. The tastings were carried out in two replications in one session. Panelists were asked to rank the solutions whilst wearing nose plugs. They were asked to rank from least sweet to most sweet.
(§1) The data were subjected to an R-Index analysis. […] An R-index from 50% to the critical value means the sweetness enhancer sample has an equivalent sweetness to the compared sucrose sample.

[3] = tested on: panel of 15 subjects all of whom were sweet sensitive; test: Comparative sensory ranking of sucrose solutions against 7% sucrose + para-ethoxy benzonitrile (R-index analysis); assay type: in vivo
Procedure: The test samples (“Test”) contained 7% sucrose and 20 ppm of para-ethoxy benzonitrile in water. The test samples were compared with control samples containing 7, 8, 9, and 10% sucrose in water. The sensory evaluations were conducted as follows. All samples were presented at ambient temperature in 15 ml aliquots at random to a panel of 15 subjects all of whom were sweet sensitive of varying sensitivity. After tasting each sample, the mouth was rinsed thoroughly with water at ambient temperature prior to tasting the next sample. The tastings were carried out in two replications in one session. Panelists were asked to rank the solutions whilst wearing nose plugs. They were asked to rank from least sweet to most sweet.
as §1

CCOc1ccc(C#N)cc1 [ethoxy benzonitrile]
taste as described [1]: sweet or sweetish

CCOc1ccc(C#N)cc1 [para-ethoxy benzonitrile]
Significantly different (p < 0.05) ([2]; 10 ppm in water vs. 0.5% sucrose): No | R-index ([2]; 10 ppm in water vs. 0.5% sucrose, critical value 64.61%): 51% | iso sweet sucrose solution ([2]; 10 ppm solution in water): 0.5% | Significantly different (p < 0.05) ([2]; 20 ppm in water vs. 0.5% sucrose): Yes | R-index ([2]; 20 ppm in water vs. 0.5% sucrose, critical value 64.61%): 81% | Significantly different (p < 0.05) ([2]; 20 ppm in water vs. 1.0% sucrose): Yes | R-index ([2]; 20 ppm in water vs. 1.0% sucrose, critical value 35.39%): 30% | iso-sweet sucrose solution, by interpolation ([2]; 20 ppm solution in water): 0.75% | perceived sweetness relative to sucrose ([2]; 20 ppm solution vs. 0.5% sucrose): significantly sweeter | perceived sweetness relative to sucrose ([2]; 20 ppm solution vs. 1% sucrose): significantly less sweet | sweetness enhancement (additive or synergistic) ([3]; 20 ppm in 7% sucrose, Examples 1 and 2 taken together): synergistic effect | iso-sweet sucrose, by interpolation ([3]; Test (7% sucrose + 20 ppm in water)): 8.5% | Significantly different (p < 0.05) ([3]; Test (7% sucrose + 20 ppm in water) vs. 7% sucrose): Yes | R-index ([3]; Test (7% sucrose + 20 ppm in water) vs. 7% sucrose, critical value 64.61%): 95% | Significantly different (p < 0.05) ([3]; Test (7% sucrose + 20 ppm in water) vs. 8% sucrose): Yes | R-index ([3]; Test (7% sucrose + 20 ppm in water) vs. 8% sucrose, critical value 64.61%): 73% | Significantly different (p < 0.05) ([3]; Test (7% sucrose + 20 ppm in water) vs. 9% sucrose): Yes | R-index ([3]; Test (7% sucrose + 20 ppm in water) vs. 9% sucrose, critical value 35.39%): 28% | Significantly different (p < 0.05) ([3]; Test (7% sucrose + 20 ppm in water) vs. 10% sucrose): Yes | R-index ([3]; Test (7% sucrose + 20 ppm in water) vs. 10% sucrose, critical value 35.39%): 10% | iso-sweet sucrose expected were the effect merely additive ([3]; Test (7% sucrose + 20 ppm in water), from the data of Example 1): 7.75% | perceived sweetness relative to sucrose ([3]; Test (7% sucrose + 20 ppm) vs. 7 and 8% sucrose solutions): significantly sweeter | perceived sweetness relative to sucrose ([3]; Test (7% sucrose + 20 ppm) vs. 9% and 10% sucrose): less sweet
